Laboratory results reported in US20200267989A1, “PARASITE TREATMENT COMPOUND” (University of Maine System Board of Trustees, priority 2017, published 2020).
Several values for one entry are separate records, joined by “and”; a condition that tells them apart may be missing. Equal values may be shown once.

Assays:
Atlantic salmon = assay: KCl bath treatment of Atlantic salmon: adverse effects on the fish; type: in vivo
Method: (§1) A 0.48% (4.8 g/L-4.8 ppt) pharmaceutical grade KCl compound was tested on 30 Atlantic salmon that were infected with sea lice. The fish and the compound were added to a tank filled with seawater. After 30 minutes 15 fish were removed and placed in a recovery bath of seawater, and at 60 minutes the remaining 15 fish were removed.
(§2) A 0.43% % (4.3 g/L-4.3 ppt) agricultural grade KCl compound was tested on Atlantic salmon that were infected with sea lice. After 10 minutes the fish began showing agitation that increased until the 30 minute mark. Fish began losing equilibrium and began to roll over and stop respiring by 20 minutes.
(§3) A water holding tank was filled with fresh well water at 10° C.+−2° C. A 0.5% % (5.0 g/L-5.0 ppt) agricultural grade KCl solution was added to the water. A number of farm-raised Atlantic salmon that were infected with sea lice were added to the tank.
(§4) A water holding tank was filled with fresh well water at 10° C.+−2° C. A 0.2% % (2.0 g/L-2.0 ppt) agricultural grade KCl solution was added to the water. A number of farm-raised Atlantic salmon that were infected with sea lice were added to the tank.

sea lice [1] = assay: Pilot laboratory trial: KCl pre-treatment plus mechanical devices for removal of sea lice from Atlantic salmon; type: in vivo
Method: A pilot laboratory trial was run using various forms of mechanical devices for removal of sea lice from Atlantic salmon (ATS). The effectiveness of the mechanical devices at removing/detaching lice was measured with and without KCl pretreatment, and the results compared.
The experiment consisted of testing 3 mechanical devices on lice infested Atlantic salmon (ATS) in seawater and then on lice infested Atlantic salmon that had been pre-treated in seawater with KCL at 4 part per thousand (PPT) or 2 PPT for 5 or 15 minutes. The mechanical treatment referred to as Treatment A in Table 1 was a water spray apparatus including multiple jets in a roughly circular arrangement, and treatments B and C in Table 1 were alternative mechanical treatments. Each treatment group was run separately with two fish were staggered by 15 minutes to facilitate counting lice, except for Treatment C as both fish were placed together. The treatment groups were as follows: • 1) Treatment A with seawater (2 fish) • 2) Treatment A with sea water plus KCL 4 PPT, 15 minutes (2 fish) • 3) Treatment B with seawater (2 fish) • 4) Treatment B with sea water plus KCL 4 PPT, 15 minutes (2 fish) • 5) Treatment A with seawater plus 2PPT, 15 minutes (1 fish) • 6) Treatment A with sea water plus KCL 4 PPT, 5 minutes (1 fish) • 7) Treatment C with seawater (2 fish) • 8) Treatment C sea water plus KCL 2 PPT (2 fish)
Each treatment group was performed essentially as follows:
Pre-Treatment before Treatment A, B, or C • 1) Take 1 fish and transfer it to Tank 1 (70 liter tank); • 2) Take 1 fish and transfer it to Tank 2, staggered (70 liter tank); • 3) Both tanks will be filled with seawater for Round 1 of a treatment group and seawater and KC1 4PPT X for Round 2 for a treatment; • 4) Fish swim around freely in treatment Tank 1 for 30 minutes; • 5) Fish swim around freely in treatment Tank 2 for 30 minutes;
Evaluation of Pretreatment: • 1) Remove Fish from Tank 1; • 2) Place 1 Fish in Sedation Tank; • 3) Count detached lice in Tank 1; • 4) Remove 1 Fish from Sedation Tank; • 5) Count numbers of Lice on each fish (making sure to differentiate between the two tanks); • 6) Repeat for staggered Tank 2.
Perform Mechanical Treatment: • 1) Pass fish through mechanical treatments (A, B or C) • 2) Count lice on fish

sea lice [2] = assay: KCl bath treatment of sea-lice-infected Atlantic salmon: sea lice detachment; type: in vivo
Method: as §1, §2, §3, §4

[3] = previously known pesticide treatment; cited from earlier work
[4] = Example 1: 0.48% (4.8 ppt) pharmaceutical grade KCl, seawater tank, 30 and 60 minutes
[5] = Example 3: 0.5% (5.0 ppt) agricultural grade KCl, fresh well water at 10° C.
[6] = Mechanical Treatment A, KCl 2 PPT in seawater, treatment time 15 min
[7] = Mechanical Treatment A, KCl 4 PPT in seawater, treatment time 5 min
[8] = Mechanical Treatment A, KCl 4 PPT in seawater, treatment time 15 min
[9] = Mechanical Treatment B, KCl 4 PPT in seawater, treatment time 15 min

[Cl-].[K+] [KCl, potassium chloride]
adverse effects on the salmon (Atlantic salmon; [4]): no noticeable adverse effects
time by which fish began losing equilibrium, rolled over and stopped respiring (Atlantic salmon; Example 2: 0.43% (4.3 ppt) agricultural grade KCl): ≤ 20 min
time after which fish began showing agitation (Atlantic salmon; Example 2: 0.43% (4.3 ppt) agricultural grade KCl, agitation increased until the 30 minute mark): 10 min
time within which fish showed extreme agitation, began to lose equilibrium and respiration stopped (Atlantic salmon; [5]): ≤ 10 min
agitation or adverse effect on the fish (Atlantic salmon; Example 4: 0.2% (2.0 ppt) agricultural grade KCl, fresh well water at 10° C., after 60 minutes): no agitation or adverse effect
effect of KCl on effectiveness of mechanical treatments A and B at removing/detaching lice (sea lice [1]; KCl pretreatment in seawater before mechanical treatment): increases the effectiveness
# removed - mechanical + KCl (sea lice [1]; [6]): 90
# removed - mechanical treatment only (sea lice [1]; [6]): 39
% removed - mechanical + KCl (sea lice [1]; [6]): 78.3%
% removed - mechanical treatment only (sea lice [1]; [6]): 60.9%
Sealice counts: Detached in pre-treatment tank (sea lice [1]; [6]): 51
Sealice counts: On fish - finish (sea lice [1]; [6]): 25
Sealice counts: On fish - start of mechanical treatment (sea lice [1]; [6]): 64
# removed - mechanical + KCl (sea lice [1]; [7]): 117
# removed - mechanical treatment only (sea lice [1]; [7]): 65
% removed - mechanical + KCl (sea lice [1]; [7]): 80.7%
% removed - mechanical treatment only (sea lice [1]; [7]): 69.9%
Sealice counts: Detached in pre-treatment tank (sea lice [1]; [7]): 52
Sealice counts: On fish - finish (sea lice [1]; [7]): 28
Sealice counts: On fish - start of mechanical treatment (sea lice [1]; [7]): 93
# removed - mechanical + KCl (sea lice [1]; [8]): 99 and 115
# removed - mechanical treatment only (sea lice [1]; [8]): 19 and 16
% removed - mechanical + KCl (sea lice [1]; [8]): 91.7% and 99.1%
% removed - mechanical treatment only (sea lice [1]; [8]): 67.9% and 94.1%
Sealice counts: Detached in pre-treatment tank (sea lice [1]; [8]): 80 and 99
Sealice counts: On fish - start of mechanical treatment (sea lice [1]; [8]): 28 and 17
# removed - mechanical + KCl (sea lice [1]; [9]): 88 and 85
# removed - mechanical treatment only (sea lice [1]; [9]): 9 and 11
% removed - mechanical + KCl (sea lice [1]; [9]): 91.7% and 93.4%
% removed - mechanical treatment only (sea lice [1]; [9]): 52.9% and 64.7%
Sealice counts: Detached in pre-treatment tank (sea lice [1]; [9]): 79 and 74
Sealice counts: On fish - finish (sea lice [1]; [9]): 8 and 6
Sealice counts: On fish - start of mechanical treatment (sea lice [1]; [9]): 17
Sealice counts: On fish - finish (sea lice [1]; Mechanical Treatment C, KCl 2 PPT in seawater, treatment time 5 min, lice not counted prior to treatment): 35 and 31
removing/detaching lice by KCl pretreatment on its own (sea lice [1]; pretreatment at 4ppt and 2ppt in seawater): effective in removing/detaching lice on its own
effectiveness of KCl at 4ppt compared with 2ppt (sea lice [1]; seawater pretreatment): more effective
effectiveness of KCl at 4ppt for 15 minutes compared with 5 minutes (sea lice [1]; seawater pretreatment, 4ppt): more effective
sea lice detachment (sea lice [2]; [4]): noticeable sea lice detachment
sea lice detachment (sea lice [2]; Example 2: 0.43% (4.3 ppt) agricultural grade KCl, by agitation and thrashing of the dying fish): detached more lice
sea lice removal (sea lice [2]; [5]): marked sea lice removal
sea lice detachment (sea lice [2]; Example 4: 0.2% (2.0 ppt) agricultural grade KCl, fresh well water at 10° C., after 30 minutes): marked sea lice detachment
effectiveness on sea lice in freshwater compared with seawater (sea lice [2]; freshwater vs seawater): more effective

emamectin benzoate
time the pesticide can remain in the fish [3]: more than two months
